Measurements reported in patent US8378117B2 (priority 2005, dated 2013).
Like-named read-outs stand apart in the source and are kept apart here.

Columns and labels:
CB2 receptor = target: T1, CB2 receptor (Homo sapiens, UniProt P34972); experiment: Binding assay for CB2 agonists or inverse agonists (SK-N-MC membranes, [3H]-CP-55,940); settings: for inhibition at 1 µM: test concentration 1 μM (footnote 1)
T1 construct: expressed in transfected cells
How it was run: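 Membranes from SK-N-MC cells stably expressing human CB2 were incubated with radioligand and test compounds for 90 min at 30 °C in Tris-HCl buffer, pH 7.5, with MgCl2, EDTA and fatty-acid-free BSA. Filter-bound radioactivity was counted; IC50 was derived by linear regression of percent inhibition.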

CB1 receptor = target: T2, CB1 receptor (Homo sapiens, UniProt P21554); experiment: Binding assay for CB1 agonists or inverse agonists (SK-N-MC membranes, [3H]-CP-55,940); settings: for inhibition at 1 µM: read-out: CB1 receptor binding percent inhibition, test concentration 1 μM (footnote 1); for IC50: Cannabinoid CB1 Receptor Binding IC50, calculated by linear regression from percent inhibition at various test concentrations
T2 construct: expressed in transfected cells
How it was run: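 Membranes from SK-N-MC cells stably expressing human CB1 incubated with compound and [3H]-CP-55,940 ([…]) for 90 min at 30° C in Tris-HCl pH 7.5, MgCl2, EDTA, fatty-acid-free BSA. Non-specific binding defined with 10 uM WIN 55,212; filtration, scintillation count; IC50 by linear regression.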

[1] = test concentration 0.2 μM (footnote 2), read-out: CB2 receptor binding percent inhibition
[2] = read-out: CB1 receptor binding percent inhibition, test concentration 0.2 μM (footnote 2)
[3] = read-out: CB2 receptor binding percent inhibition, test concentration 0.2 μM (footnote 2)
[4] = read-out: CB2 receptor binding percent inhibition
[5] = Cannabinoid CB2 Receptor Binding IC50, calculated by linear regression from percent inhibition at various test concentrations

T1 sequence (P34972 whole entry): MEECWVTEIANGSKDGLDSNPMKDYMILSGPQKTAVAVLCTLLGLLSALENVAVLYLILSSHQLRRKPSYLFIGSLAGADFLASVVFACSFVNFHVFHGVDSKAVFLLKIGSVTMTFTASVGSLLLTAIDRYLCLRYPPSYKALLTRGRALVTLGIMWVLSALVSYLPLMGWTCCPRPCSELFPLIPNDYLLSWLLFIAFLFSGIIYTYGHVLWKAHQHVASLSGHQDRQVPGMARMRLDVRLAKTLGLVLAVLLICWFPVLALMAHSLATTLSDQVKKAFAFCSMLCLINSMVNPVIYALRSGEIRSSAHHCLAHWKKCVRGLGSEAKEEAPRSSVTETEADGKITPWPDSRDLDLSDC
T2 sequence (P21554 whole entry): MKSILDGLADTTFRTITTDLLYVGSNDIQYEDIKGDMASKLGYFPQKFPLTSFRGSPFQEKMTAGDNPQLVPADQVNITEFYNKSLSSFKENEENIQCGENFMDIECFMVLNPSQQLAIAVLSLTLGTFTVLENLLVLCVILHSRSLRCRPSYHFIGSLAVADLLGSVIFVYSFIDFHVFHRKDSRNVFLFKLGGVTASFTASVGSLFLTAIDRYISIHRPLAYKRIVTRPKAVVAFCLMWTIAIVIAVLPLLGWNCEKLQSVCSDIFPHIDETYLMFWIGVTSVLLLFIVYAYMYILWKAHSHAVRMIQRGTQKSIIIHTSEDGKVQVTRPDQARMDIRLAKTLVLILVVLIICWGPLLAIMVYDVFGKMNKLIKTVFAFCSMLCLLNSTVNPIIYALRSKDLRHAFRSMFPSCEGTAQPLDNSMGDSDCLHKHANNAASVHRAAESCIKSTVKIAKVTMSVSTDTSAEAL

| Structure (SMILES) | CB2 receptor binding percent inhibition (CB2 receptor; test concentration not stated) [%] | inhibition at 1 µM (CB1 receptor) [%] | also measured |
| --- | --- | --- | --- |
| O=C(NC1C2CC3CC(C2)CC1C3)c1nn(C2CCCCC2)c2c1CCCCC2Cc1ccc(Cl)cc1 (stereo not shown) [Cpd 16, 8-(4-chloro-benzyl)-1-cyclohexyl-1,4,5,6,7,8-hexahydro-cycloheptapyrazole-3-carboxylic acid adamantan-2-ylamide] | 68 | 21 |  |
| O=C(NN1CCCCC1)c1nn(-c2ccncc2)c2c1CCCC/C2=C\c1ccc(Cl)cc1 [Cpd 182, (8E)-8-(4-chloro-benzylidene)-1-pyridin-4-yl-1,4,5,6,7,8-hexahydro-cycloheptapyrazole-3-carboxylic acid piperidin-1-ylamide] |  |  | inhibition at 0.2 µM (CB2 receptor; [1]): 31%; inhibition at 0.2 µM (CB1 receptor; [2]): 21% |
| O=C(NC1CC1)c1nn(-c2ccc(Cl)cc2Cl)c2c1CCCCC2Cc1ccc(Cl)cc1 (stereo not shown) [Cpd 38, 8-(4-chloro-benzyl)-1-(2,4-dichloro-phenyl)-1,4,5,6,7,8-hexahydro-cycloheptapyrazole-3-carboxylic acid cyclopropylamide] | 0 | 39 |  |
| O=C(N[C@@H](CO)Cc1ccccc1)c1nn(-c2ccc(Cl)cc2Cl)c2c1CCCCC2Cc1cccc(Cl)c1 (stereo partly drawn) [Cpd 163, 8-(3-chloro-benzyl)-1-(2,4-dichloro-phenyl)-1,4,5,6,7,8-hexahydro-cycloheptapyrazole-3-carboxylic acid [(1R)-1-benzyl-2-hydroxy-ethyl]-amide] |  |  | inhibition at 0.2 µM (CB2 receptor; [1]): 7%; inhibition at 0.2 µM (CB1 receptor; [2]): 44% |
| O=C(N[C@@H](CO)c1ccccc1)c1nn(-c2ccc(Cl)cc2Cl)c2c1CCCC/C2=C\c1ccc(F)cc1 [Cpd 203, (8E)-1-(2,4-dichloro-phenyl)-8-(4-fluoro-benzylidene)-1,4,5,6,7,8-hexahydro-cycloheptapyrazole-3-carboxylic acid [(1R)-2-hydroxy-1-phenyl-ethyl]-amide] |  |  | inhibition at 0.2 µM (CB2 receptor; [3]): 30%; inhibition at 0.2 µM (CB1 receptor; [2]): 37% |
| O=C(NC1CCC1)c1nn(C2CCCCC2)c2c1CCCCC2Cc1cccc(F)c1 (stereo not shown) [Cpd 43, 1-cyclohexyl-8-(3-fluoro-benzyl)-1,4,5,6,7,8-hexahydro-cycloheptapyrazole-3-carboxylic acid cyclobutylamide] | 42 | 14 |  |
| Cn1nc(/C=C/S(=O)(=O)NN2CCOCC2)c2c1C(Cc1cccc(F)c1)CCCC2 (stereo not shown) [Cpd 125, (2E)-2-[8-(3-fluoro-benzyl)-1-methyl-1,4,5,6,7,8-hexahydro-cycloheptapyrazol-3-yl]-ethenesulfonic acid morpholin-4-ylamide] | 30 | 0 |  |
| O=C(c1nn(C2CCCCC2)c2c1CCCCC2Cc1cccc(F)c1)N1CCN(c2ccccc2)CC1 (stereo not shown) [Cpd 54, [1-cyclohexyl-8-(3-fluoro-benzyl)-1,4,5,6,7,8-hexahydro-cycloheptapyrazol-3-yl]-(4-phenyl-piperazin-1-yl)-methanone] | 41 | 18 |  |
| O=C(NC1CC1)c1nn(C2CCCCC2)c2c1CCCCC2Cc1cccc(F)c1 (stereo not shown) [Cpd 49, 1-cyclohexyl-8-(3-fluoro-benzyl)-1,4,5,6,7,8-hexahydro-cycloheptapyrazole-3-carboxylic acid cyclopropylamide] | 9 | 33 |  |
| O=C(NC1C2CC3CC(C2)CC1C3)c1nn(-c2ccc(Cl)cc2Cl)c2c1CCCCC2Cc1ccc(Cl)cc1 (stereo not shown) [Cpd 18, 8-(4-chloro-benzyl)-1-(2,4-dichloro-phenyl)-1,4,5,6,7,8-hexahydro-cycloheptapyrazole-3-carboxylic acid adamantan-2-ylamide] | 23 | 3 |  |
| O=C(NC1CCC1)c1nn(Cc2ccc(Cl)cc2)c2c1CCCCC2Cc1ccc(Cl)cc1 (stereo not shown) [Cpd 30, 1,8-bis-(4-chloro-benzyl)-1,4,5,6,7,8-hexahydro-cycloheptapyrazole-3-carboxylic acid cyclobutylamide] |  | 28 | IC50 (CB2 receptor; calculated by linear regression from percent inhibition at various test concentrations, read-out: Cannabinoid CB2 Receptor Binding IC50): 600 nM; inhibition at 1 µM (CB2 receptor; [4]): 65% |
| O=C(NC12CC3CC(CC(C3)C1)C2)c1nn(C2CCCCC2)c2c1CCCCC2Cc1ccccc1Cl (stereo not shown) [Cpd 21, 8-(2-chloro-benzyl)-1-cyclohexyl-1,4,5,6,7,8-hexahydro-cycloheptapyrazole-3-carboxylic acid adamantan-1-ylamide] | 26 | 32 |  |
| O=C(NCc1cccc(C(F)(F)F)c1)c1nn(Cc2ccccc2)c2c1CCCCC2c1ccccc1 (stereo not shown) [Cpd 69, 1-benzyl-8-phenyl-1,4,5,6,7,8-hexahydro-cycloheptapyrazole-3-carboxylic acid 3-trifluoromethyl-benzylamide] |  |  | inhibition at 0.25 µM (CB2 receptor; test concentration 0.25 μM (footnote 8), read-out: CB2 receptor binding percent inhibition): 12%; inhibition at 0.25 µM (CB1 receptor; read-out: CB1 receptor binding percent inhibition, test concentration 0.25 μM (footnote 8)): 23% |
| CCOC(=O)[C@@H]1C2CCC(C2)[C@@H]1NC(=O)c1nn(C2CCCCC2)c2c1CCCCC2Cc1cccc(F)c1 (stereo partly drawn) [Cpd 105, (2R,3S)-3-{[1-cyclohexyl-8-(3-fluoro-benzyl)-1,4,5,6,7,8-hexahydro-cycloheptapyrazole-3-carbonyl]-amino}-bicyclo[2.2.1]heptane-2-carboxylic acid ethyl ester] | 82 | 2 |  |
| O=C(NC1CCC1)c1nn(C2CCCCC2)c2c1CCCCC2Cc1ccc(F)cc1 (stereo not shown) [Cpd 57, 1-cyclohexyl-8-(4-fluoro-benzyl)-1,4,5,6,7,8-hexahydro-cycloheptapyrazole-3-carboxylic acid cyclobutylamide] | 29 | 35 |  |
| O=C(NC1CCCC1)c1nn(C2CCCCC2)c2c1CCCCC2Cc1cccc(F)c1 (stereo not shown) [Cpd 52, 1-cyclohexyl-8-(3-fluoro-benzyl)-1,4,5,6,7,8-hexahydro-cycloheptapyrazole-3-carboxylic acid cyclopentylamide] | 21 | 26 |  |
| O=C(c1nn(C2CCCCC2)c2c1CCCCC2Cc1ccc(F)cc1)N1CCN(c2ccccc2)CC1 (stereo not shown) [Cpd 60, [1-cyclohexyl-8-(4-fluoro-benzyl)-1,4,5,6,7,8-hexahydro-cycloheptapyrazol-3-yl]-(4-phenyl-piperazin-1-yl)-methanone] | 38 | 38 |  |
| O=C(NN1CCCCC1)c1nn(C2CCCCC2)c2c1CCCCC2Cc1cccc(F)c1 (stereo not shown) [Cpd 50, 1-cyclohexyl-8-(3-fluoro-benzyl)-1,4,5,6,7,8-hexahydro-cycloheptapyrazole-3-carboxylic acid piperidin-1-ylamide] | 31 | 32 |  |
| C[C@H](NC(=O)c1nn(-c2ccc(Cl)cc2Cl)c2c1CCCCC2Cc1ccc(Cl)cc1)c1ccccc1 (stereo partly drawn) [Cpd 76, 8-(4-chloro-benzyl)-1-(2,4-dichloro-phenyl)-1,4,5,6,7,8-hexahydro-cycloheptapyrazole-3-carboxylic acid [(1S)-1-phenyl-ethyl]-amide] | 38 |  | CB1 receptor binding average percent inhibition (CB1 receptor; value shown is an average percent inhibition (footnote 5), concentration not given): ^(5)44% |
| COC(=O)[C@@H](Cc1ccc(F)cc1)NC(=O)c1nn(C)c2c1CCCC/C2=C\c1cccc(F)c1 [Cpd 248, (8E)-(2R)-2-{[8-(3-fluoro-benzylidene)-1-methyl-1,4,5,6,7,8-hexahydro-cycloheptapyrazole-3-carbonyl]-amino}-3-(4-fluoro-phenyl)-propionic acid methyl ester] |  |  | IC50 (CB2 receptor; [5]): 3 nM; inhibition at 0.2 µM (CB2 receptor; [3]): 96%; IC50 (CB1 receptor): 7 nM; inhibition at 0.2 µM (CB1 receptor; [2]): 89% |
| O=C(NN1CCCCC1)c1nn(-c2ccccc2Cl)c2c1CCCC/C2=C\c1ccc(Cl)cc1 [Cpd 193, (8E)-8-(4-chloro-benzylidene)-1-(2-chloro-phenyl)-1,4,5,6,7,8-hexahydro-cycloheptapyrazole-3-carboxylic acid piperidin-1-ylamide] |  |  | inhibition at 0.2 µM (CB2 receptor; [1]): 16%; inhibition at 0.2 µM (CB1 receptor; [2]): 43% |
| O=C(c1n[nH]c2c1CCCC/C2=C\c1ccc(Cl)cc1)N1CCCCC1 [Cpd 223, (8E)-[8-(4-chloro-benzylidene)-1,4,5,6,7,8-hexahydro-cycloheptapyrazol-3-yl]-piperidin-1-yl-methanone] |  |  | inhibition at 0.2 µM (CB2 receptor; [1]): 58%; inhibition at 0.2 µM (CB1 receptor; [2]): 40% |
| O=C(NC12CC3CC(CC(C3)C1)C2)c1nn(C2CCCCC2)c2c1CCCCC2Cc1cccc(Cl)c1 (stereo not shown) [Cpd 19, 8-(3-chloro-benzyl)-1-cyclohexyl-1,4,5,6,7,8-hexahydro-cycloheptapyrazole-3-carboxylic acid adamantan-1-ylamide] | 51 | 18 |  |
| C[C@H](NC(=O)c1n[nH]c2c1CCCC/C2=C\c1ccc(Cl)cc1)c1ccccc1 [Cpd 141, (8E)-8-(4-chloro-benzylidene)-1,4,5,6,7,8-hexahydro-cycloheptapyrazole-3-carboxylic acid [(1S)-1-phenyl-ethyl]-amide] |  |  | CB2 receptor binding percent inhibition (CB2 receptor; test concentration 0.2 μM (footnote 2)): ^(2)97%; IC50 (CB1 receptor): 6 nM; inhibition at 0.2 µM (CB1 receptor; read-out: CB1 receptor binding percent inhibition): 95% |
| C[C@H](NS(=O)(=O)/C=C/c1nn(C)c2c1CCCCC2Cc1ccc(F)cc1)c1ccccc1 (stereo partly drawn) [Cpd 101, (2E)-2-[8-(4-fluoro-benzyl)-1-methyl-1,4,5,6,7,8-hexahydro-cycloheptapyrazol-3-yl]-ethenesulfonic acid [(1S)-1-phenyl-ethyl]-amide] |  | 28 | IC50 (CB2 receptor; [5]): 40 nM; inhibition at 1 µM (CB2 receptor; [4]): 97% |
